For the experiment, the target named is Tyrosine-protein phosphatase non-receptor type 7 (Homo sapiens) (UniProt P35236). The experiment in a line: HePTP phosphatase inhibitor potency, dose response, biochemical, fluorescence, secondary assay (AID 1077). The note with it: recombinant HePTP phosphatase, fluorogenic substrate.
Tyrosine-protein phosphatase non-receptor type 7 (Homo sapiens), sequence (P35236 whole entry, looked up): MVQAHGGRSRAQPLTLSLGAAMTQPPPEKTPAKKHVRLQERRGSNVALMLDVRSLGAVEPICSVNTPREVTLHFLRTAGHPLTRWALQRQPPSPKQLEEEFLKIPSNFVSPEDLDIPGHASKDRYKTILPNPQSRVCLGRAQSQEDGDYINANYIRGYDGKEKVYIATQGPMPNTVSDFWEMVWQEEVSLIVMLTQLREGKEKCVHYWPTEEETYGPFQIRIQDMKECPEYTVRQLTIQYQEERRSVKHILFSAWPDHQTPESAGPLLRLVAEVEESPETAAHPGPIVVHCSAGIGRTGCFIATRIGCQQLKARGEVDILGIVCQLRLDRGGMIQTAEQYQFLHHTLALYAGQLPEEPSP

Take `CCOc1ccc2nc(NC(=O)CSC3=Nc4sc(C)c(C)c4C(=O)C3)sc2c1`: the IC50 was 15 µM.

The record behind these values is PubChem BioAssay AID1077 (Sanford-Burnham Center for Chemical Genomics, 2009).
